ChEMBL document CHEMBL5214927, “Recent advance on carbamate-based cholinesterase inhibitors as potential multifunctional agents against Alzheimer's disease” (Eur J Med Chem, 2022)

Experiments:
[1] = target: T1, Cholinesterases; ACHE & BCHE (Homo sapiens) (UniProt P06276+P22303); experiment: Selectivity index, ratio of IC50 for recombinant human serum AChE to IC50 for recombinant human serum BChE; assay type: protein assay
[2] = target: Fatty-acid amide hydrolase 1 (Rattus norvegicus, UniProt P97612); experiment: Displacement of [14C]-ethanolamine from FAAH derived from rat brain membrane fraction preincubated for 20 mins followed by susbstrate addition by scintillation counting method; assay type: cell membranes
Sequence of Fatty-acid amide hydrolase 1 (P97612 whole entry): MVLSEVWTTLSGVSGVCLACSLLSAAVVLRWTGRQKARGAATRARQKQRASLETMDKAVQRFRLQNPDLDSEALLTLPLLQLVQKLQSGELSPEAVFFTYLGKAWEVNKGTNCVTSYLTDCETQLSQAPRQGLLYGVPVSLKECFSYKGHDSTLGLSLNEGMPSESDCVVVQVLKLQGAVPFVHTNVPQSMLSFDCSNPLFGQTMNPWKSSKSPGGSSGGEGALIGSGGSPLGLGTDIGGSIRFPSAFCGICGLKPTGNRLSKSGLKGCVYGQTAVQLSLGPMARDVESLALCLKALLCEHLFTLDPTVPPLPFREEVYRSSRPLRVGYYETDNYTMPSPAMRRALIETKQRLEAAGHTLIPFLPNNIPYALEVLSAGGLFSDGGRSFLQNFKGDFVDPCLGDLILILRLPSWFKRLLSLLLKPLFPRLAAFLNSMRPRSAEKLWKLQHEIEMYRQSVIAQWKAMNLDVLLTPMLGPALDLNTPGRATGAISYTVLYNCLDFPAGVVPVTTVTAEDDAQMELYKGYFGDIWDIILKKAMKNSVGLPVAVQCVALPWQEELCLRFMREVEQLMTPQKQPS

[3] = target: High affinity cGMP-specific 3',5'-cyclic phosphodiesterase 9A (Homo sapiens, UniProt O76083); experiment: Inhibition of PDE9A (unknown origin)
Sequence of High affinity cGMP-specific 3',5'-cyclic phosphodiesterase 9A (O76083 whole entry): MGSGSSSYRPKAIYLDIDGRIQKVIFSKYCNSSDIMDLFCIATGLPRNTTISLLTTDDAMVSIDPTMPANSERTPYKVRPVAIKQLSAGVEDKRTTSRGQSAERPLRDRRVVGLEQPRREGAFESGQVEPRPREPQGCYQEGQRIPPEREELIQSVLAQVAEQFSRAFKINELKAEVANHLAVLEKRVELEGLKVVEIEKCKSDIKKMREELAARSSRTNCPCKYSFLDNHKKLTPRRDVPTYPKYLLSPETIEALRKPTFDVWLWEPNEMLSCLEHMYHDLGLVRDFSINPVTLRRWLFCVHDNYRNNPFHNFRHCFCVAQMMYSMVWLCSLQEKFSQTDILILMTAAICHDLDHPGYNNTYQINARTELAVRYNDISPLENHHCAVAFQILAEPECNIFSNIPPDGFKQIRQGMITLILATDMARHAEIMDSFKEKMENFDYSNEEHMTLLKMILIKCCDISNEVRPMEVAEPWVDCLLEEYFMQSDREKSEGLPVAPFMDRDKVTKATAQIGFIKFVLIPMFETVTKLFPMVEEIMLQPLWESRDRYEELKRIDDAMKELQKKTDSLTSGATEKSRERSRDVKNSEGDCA

Cholinesterase [4] = target: Cholinesterase (Equus caballus, UniProt P81908); experiment: Inhibition of equine BChE
Sequence of Cholinesterase (Equus caballus, UniProt P81908) (P81908 whole entry): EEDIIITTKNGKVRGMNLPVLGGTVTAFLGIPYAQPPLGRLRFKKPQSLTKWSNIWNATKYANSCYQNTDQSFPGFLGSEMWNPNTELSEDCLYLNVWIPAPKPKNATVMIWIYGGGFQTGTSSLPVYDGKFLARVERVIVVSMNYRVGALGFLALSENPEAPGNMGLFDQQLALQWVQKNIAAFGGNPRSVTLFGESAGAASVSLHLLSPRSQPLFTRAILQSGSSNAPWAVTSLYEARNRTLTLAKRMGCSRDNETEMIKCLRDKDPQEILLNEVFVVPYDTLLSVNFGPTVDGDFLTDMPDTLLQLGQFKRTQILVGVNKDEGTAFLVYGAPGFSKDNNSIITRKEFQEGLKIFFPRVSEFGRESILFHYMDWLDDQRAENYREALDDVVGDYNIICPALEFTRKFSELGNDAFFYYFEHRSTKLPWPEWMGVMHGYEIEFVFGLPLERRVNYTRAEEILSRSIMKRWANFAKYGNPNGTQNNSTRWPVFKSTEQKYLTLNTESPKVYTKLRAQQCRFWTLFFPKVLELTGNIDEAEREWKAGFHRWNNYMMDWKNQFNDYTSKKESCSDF

Acetylcholinesterase [5] = target: T2, Acetylcholinesterase (Rattus norvegicus, UniProt P37136); experiment: Inhibition of rat AChE by Ellman's method
T2 sequence (P37136 whole entry): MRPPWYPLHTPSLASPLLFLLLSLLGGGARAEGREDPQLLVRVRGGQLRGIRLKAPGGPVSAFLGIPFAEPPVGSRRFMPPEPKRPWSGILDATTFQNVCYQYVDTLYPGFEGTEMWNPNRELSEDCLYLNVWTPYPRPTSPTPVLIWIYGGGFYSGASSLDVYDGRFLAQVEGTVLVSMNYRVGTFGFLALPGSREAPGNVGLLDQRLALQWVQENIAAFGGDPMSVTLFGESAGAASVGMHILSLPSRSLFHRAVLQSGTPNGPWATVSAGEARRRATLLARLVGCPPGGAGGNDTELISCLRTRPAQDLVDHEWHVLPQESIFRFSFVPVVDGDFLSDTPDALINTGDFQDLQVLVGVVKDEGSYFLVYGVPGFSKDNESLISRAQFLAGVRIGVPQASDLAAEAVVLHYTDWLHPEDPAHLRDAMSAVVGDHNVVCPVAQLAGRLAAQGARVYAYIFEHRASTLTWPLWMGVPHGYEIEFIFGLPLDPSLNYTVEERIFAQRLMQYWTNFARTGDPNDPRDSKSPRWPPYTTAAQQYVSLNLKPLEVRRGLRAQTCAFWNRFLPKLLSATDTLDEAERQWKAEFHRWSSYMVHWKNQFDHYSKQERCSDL

[6] = target: T3, Amine oxidase [flavin-containing] A (Homo sapiens, UniProt P21397); experiment: Inhibition of MAO-A (unknown origin)
T3 sequence (P21397 whole entry): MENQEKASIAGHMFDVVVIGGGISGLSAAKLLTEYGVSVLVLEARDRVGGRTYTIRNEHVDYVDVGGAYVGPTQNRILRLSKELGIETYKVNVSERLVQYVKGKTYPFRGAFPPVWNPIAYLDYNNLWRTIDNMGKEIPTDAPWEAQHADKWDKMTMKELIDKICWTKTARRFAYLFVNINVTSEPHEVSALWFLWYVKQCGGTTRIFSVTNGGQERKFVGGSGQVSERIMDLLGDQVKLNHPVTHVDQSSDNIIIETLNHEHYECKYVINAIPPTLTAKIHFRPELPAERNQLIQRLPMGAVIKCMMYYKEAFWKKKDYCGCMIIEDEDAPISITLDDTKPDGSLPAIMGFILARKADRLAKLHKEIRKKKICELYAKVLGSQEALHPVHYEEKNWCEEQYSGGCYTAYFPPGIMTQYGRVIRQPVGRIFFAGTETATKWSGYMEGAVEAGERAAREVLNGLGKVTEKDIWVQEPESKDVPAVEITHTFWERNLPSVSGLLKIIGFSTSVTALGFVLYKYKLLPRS

[7] = target: T4, Amine oxidase [flavin-containing] B (Homo sapiens, UniProt P27338); experiment: Inhibition of MAO-B (unknown origin)
T4 sequence (P27338 whole entry): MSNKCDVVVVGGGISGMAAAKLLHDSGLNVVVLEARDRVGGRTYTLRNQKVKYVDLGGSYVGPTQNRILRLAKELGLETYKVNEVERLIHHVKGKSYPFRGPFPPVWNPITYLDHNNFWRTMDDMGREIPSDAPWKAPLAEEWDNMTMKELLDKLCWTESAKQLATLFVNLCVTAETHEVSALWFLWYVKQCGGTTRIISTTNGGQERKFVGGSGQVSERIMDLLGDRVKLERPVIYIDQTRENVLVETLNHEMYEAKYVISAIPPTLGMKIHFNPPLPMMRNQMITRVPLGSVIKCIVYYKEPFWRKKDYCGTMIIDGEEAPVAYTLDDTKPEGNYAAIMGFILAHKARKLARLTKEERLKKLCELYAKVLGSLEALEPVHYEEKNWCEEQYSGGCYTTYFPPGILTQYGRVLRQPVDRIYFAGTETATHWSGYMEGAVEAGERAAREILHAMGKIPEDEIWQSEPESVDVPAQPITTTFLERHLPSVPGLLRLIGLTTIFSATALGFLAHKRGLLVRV

Acetylcholinesterase [8] = target: Acetylcholinesterase (Electrophorus electricus, UniProt O42275); experiment: Inhibition of electric eel AChE using acetylthiocholine iodide as substrate incubated for 5 mins followed by substrate addition by Ellman's method
Acetylcholinesterase [9] = target: T5, Acetylcholinesterase (Homo sapiens, UniProt P22303); experiment: Binding affinity to AChE (unknown origin) assessed as inhibition constant preincubated for 60 mins followed by substrate addition measured after 60 mins by colorimetric method
T5 sequence (P22303 whole entry): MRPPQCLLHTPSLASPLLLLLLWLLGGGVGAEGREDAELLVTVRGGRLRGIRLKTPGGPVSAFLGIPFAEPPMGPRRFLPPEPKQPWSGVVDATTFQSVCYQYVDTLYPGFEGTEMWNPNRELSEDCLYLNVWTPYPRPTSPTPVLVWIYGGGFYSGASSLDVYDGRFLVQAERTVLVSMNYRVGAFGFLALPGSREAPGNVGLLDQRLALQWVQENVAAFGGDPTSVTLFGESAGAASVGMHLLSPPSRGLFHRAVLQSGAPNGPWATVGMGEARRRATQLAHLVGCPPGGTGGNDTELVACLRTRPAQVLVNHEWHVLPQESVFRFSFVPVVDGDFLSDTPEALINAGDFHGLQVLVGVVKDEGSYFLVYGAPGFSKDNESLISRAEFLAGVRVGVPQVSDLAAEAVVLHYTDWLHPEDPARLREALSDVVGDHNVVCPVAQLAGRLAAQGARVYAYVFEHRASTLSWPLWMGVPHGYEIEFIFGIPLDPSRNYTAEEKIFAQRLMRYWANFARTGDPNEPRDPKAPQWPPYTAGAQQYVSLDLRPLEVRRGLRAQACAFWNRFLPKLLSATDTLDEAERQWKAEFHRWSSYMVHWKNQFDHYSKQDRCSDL

Beta-secretase 1 = Beta-secretase 1 (Homo sapiens, UniProt P56817); experiment: Inhibition of BACE1 (unknown origin) using A-beta-PP as substrate by fluorescence based assay
Sequence of Beta-secretase 1 (P56817 whole entry): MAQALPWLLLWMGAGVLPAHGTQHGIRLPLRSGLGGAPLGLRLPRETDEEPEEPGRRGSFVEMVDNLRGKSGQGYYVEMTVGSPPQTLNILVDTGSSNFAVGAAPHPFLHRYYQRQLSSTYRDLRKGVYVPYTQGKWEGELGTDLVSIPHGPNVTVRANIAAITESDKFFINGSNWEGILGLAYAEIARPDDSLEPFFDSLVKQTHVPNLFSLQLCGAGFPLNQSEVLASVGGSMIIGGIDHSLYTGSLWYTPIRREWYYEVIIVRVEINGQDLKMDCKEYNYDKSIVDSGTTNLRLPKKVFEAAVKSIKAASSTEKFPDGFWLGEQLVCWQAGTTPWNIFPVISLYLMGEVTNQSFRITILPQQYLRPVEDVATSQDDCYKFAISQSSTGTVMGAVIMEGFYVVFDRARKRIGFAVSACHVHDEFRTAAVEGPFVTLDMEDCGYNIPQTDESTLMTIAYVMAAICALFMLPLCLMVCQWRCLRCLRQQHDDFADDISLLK

[10] = Toxicity in mouse assessed as lethal dose; details: in vivo
Acetylcholinesterase [11] = target: T5, Acetylcholinesterase; experiment: Binding affinity to AChE (unknown origin) assessed as inhibition constant
Cholinesterase [12] = target: T6, Cholinesterase (Homo sapiens, UniProt P06276); experiment: Binding affinity to human BChE assessed as inhibition constant
T6 sequence (P06276 whole entry): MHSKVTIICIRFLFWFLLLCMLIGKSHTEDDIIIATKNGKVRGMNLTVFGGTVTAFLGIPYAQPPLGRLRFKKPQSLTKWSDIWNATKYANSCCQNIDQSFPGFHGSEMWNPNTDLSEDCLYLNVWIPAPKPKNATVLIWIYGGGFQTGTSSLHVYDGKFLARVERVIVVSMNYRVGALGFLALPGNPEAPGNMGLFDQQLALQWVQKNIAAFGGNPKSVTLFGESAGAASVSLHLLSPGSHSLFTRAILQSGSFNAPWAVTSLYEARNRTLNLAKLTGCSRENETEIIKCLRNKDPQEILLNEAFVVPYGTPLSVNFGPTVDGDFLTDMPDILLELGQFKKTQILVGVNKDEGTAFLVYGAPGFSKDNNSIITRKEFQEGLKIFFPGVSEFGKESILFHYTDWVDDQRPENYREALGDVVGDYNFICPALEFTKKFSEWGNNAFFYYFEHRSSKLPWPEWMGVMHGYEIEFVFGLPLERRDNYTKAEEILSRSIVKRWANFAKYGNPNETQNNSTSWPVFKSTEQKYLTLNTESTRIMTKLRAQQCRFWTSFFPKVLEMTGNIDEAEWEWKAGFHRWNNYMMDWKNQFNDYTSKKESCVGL

Acetylcholinesterase [13] = target: T5, Acetylcholinesterase; experiment: Binding affinity to human AChE assessed as inhibition constant
Acetylcholinesterase [14] = target: T5, Acetylcholinesterase; experiment: Inhibition of human whole red blood cells AChE using acetylthiocholine iodide as substrate incubated for 25 mins by Ellman's method
[15] = target: T1, Cholinesterases; ACHE & BCHE (Homo sapiens); experiment: Selectivity index, ratio of IC50 for human whole red blood cells BChE to IC50 for human whole red blood cells AChE
Cholinesterase [16] = target: T6, Cholinesterase; experiment: Inhibition of human whole red blood cells BChE using butyrylthiocholine iodide as substrate incubated for 25 mins by Ellman's method
Carbonic anhydrase 1 = Carbonic anhydrase 1 (Homo sapiens, UniProt P00915); experiment: Binding affinity to human CA1 assessed as inhibition constant using p-nitrophenylacetate as substrate by spectrophotometry
Sequence of Carbonic anhydrase 1 (P00915 whole entry): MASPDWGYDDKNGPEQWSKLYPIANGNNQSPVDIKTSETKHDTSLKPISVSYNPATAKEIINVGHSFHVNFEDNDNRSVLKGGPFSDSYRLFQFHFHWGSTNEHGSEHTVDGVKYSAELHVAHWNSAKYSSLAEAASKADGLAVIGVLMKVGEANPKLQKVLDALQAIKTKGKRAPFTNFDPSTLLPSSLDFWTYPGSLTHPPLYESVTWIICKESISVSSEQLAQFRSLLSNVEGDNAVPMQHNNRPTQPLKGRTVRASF

Acetylcholinesterase [17] = target: T5, Acetylcholinesterase; experiment: Binding affinity to AChE (unknown origin) assessed as inhibition constant using acetylthiocholine iodide as substrate preincubated for 10 mins followed by substrate addition by Ellman's method
Carbonic anhydrase 2 = Carbonic anhydrase 2 (Homo sapiens, UniProt P00918); experiment: Binding affinity to human CA2 assessed as inhibition constant using p-nitrophenylacetate as substrate by spectrophotometry
[18] = target: T1, Cholinesterases; ACHE & BCHE (Homo sapiens); experiment: Selectivity index, ratio of IC50 for AChE (unknown origin) to BChE (unknown origin); assay type: protein assay
Acetylcholinesterase [19] = target: Acetylcholinesterase (Torpedo californica, UniProt P04058)
Sequence of Acetylcholinesterase (Torpedo californica, UniProt P04058) (P04058 whole entry): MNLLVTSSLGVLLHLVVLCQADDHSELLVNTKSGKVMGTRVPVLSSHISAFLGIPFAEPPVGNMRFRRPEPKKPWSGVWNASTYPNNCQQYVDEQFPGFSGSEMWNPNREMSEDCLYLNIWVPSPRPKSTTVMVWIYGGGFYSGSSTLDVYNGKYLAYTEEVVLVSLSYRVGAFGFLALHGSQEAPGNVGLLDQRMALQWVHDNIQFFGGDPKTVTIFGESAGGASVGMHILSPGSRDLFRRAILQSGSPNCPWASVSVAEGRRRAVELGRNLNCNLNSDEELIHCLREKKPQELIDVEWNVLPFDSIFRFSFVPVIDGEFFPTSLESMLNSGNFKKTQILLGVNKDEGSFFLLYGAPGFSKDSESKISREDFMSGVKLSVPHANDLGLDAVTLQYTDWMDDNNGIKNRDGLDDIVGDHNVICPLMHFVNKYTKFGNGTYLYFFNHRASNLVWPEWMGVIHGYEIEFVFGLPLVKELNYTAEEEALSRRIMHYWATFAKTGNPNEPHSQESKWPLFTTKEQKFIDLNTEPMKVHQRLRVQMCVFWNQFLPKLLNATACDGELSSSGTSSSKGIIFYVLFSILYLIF
Description: Inhibition of Pacific electric ray AChE using acetylthiocholine iodide as substrate by Ellman's method

Cholinesterase [20] = target: T6, Cholinesterase; experiment: Inhibition of recombinant human serum BChE using butyrylthiocholine iodide as substrate preincubated for 20 mins followed by substrate addition measured for 45 to 90 mins by Ellman's method
Acetylcholinesterase [21] = target: T5, Acetylcholinesterase; experiment: Inhibition of human AChE using acetylthiocholine iodide as substrate preincubated for 10 mins followed by substrate addition by spectrophotometry
Acetylcholinesterase [22] = target: T5, Acetylcholinesterase; experiment: Inhibition of human erythrocyte AChE using acetylthiocholine iodide as substrate preincubated for 6 mins followed by substrate addition measured upto 180 secs by Ellman's method
[23] = target: T4, Amine oxidase [flavin-containing] B; experiment: Inhibition of recombinant human MAO-B using p-tyramine as substrate preincubated for 15 mins followed by substrate addition measured upto 20 mins by Amplex red assay
[24] = target: T3, Amine oxidase [flavin-containing] A; experiment: Inhibition of recombinant human MAO-A using p-tyramine as substrate preincubated for 15 mins followed by substrate addition measured upto 20 mins by Amplex red assay

T1 sequence (P06276 whole entry, looked up): as the sequence (P06276 whole entry) above
T1 sequence (P22303 whole entry, looked up): as the sequence (P22303 whole entry) above

CN(CCCOc1ccc2ccc(=O)oc2c1)Cc1cccc(OC(=O)NC2CCCCC2)c1 gave a Ratio IC50 [1] of 2.98 and an IC50 [2] of 0.00133 µM.
In the case of CCN(C)C(=O)Oc1ccc(CNc2nc3c(cnn3C3CCCC3)c(=O)[nH]2)cc1OC, the IC50 [3] is reported as 0.014 µM and the IC50 (Cholinesterase [4]) is reported as 3.3 µM.
In the case of CC/N=C1\CCc2c1n(C)c1ccc(OC(=O)NC)c(Br)c21, the IC50 (Acetylcholinesterase [5]) is reported as 0.14 µM, the IC50 [6] is reported as 0.21 µM and the IC50 [7] is reported as > 1000 µM.
With COc1cc(CNc2nc3c(cnn3C3CCCC3)c(=O)[nH]2)ccc1OC(=O)N(C)C the IC50 [3] was 0.017 µM and the IC50 (Cholinesterase [4]) was 0.97 µM.
For COc1cc2c(cc1OC)C(=O)C(Cc1ccc(OC(=O)Nc3ccc(Cl)cc3)cc1)C2 (configuration not stated), the IC50 (Acetylcholinesterase [8]) was 4.64 µM.
For CC1CCCCN1CCCNC(=O)c1cc(NC(=O)OC(C)(C)C)ccc1O (configuration not stated), the Ki (Acetylcholinesterase [9]) was 0.17 µM and the IC50 (Beta-secretase 1) was 0.0154 µM.
CCCCCCCNC(=O)Oc1ccc2c(c1)[C@]1(C)CCN(C)[C@@H]1N2C [EPTASTIGMINE] gave an LD50 [10] of 35 mg/kg and a Ki (Acetylcholinesterase [11]) of 0.1 µM.
With O=C(Nc1ccccc1)OC1CN2CCC1CC2 (configuration not stated) the Ki (Cholinesterase [12]) was 3 µM and the Ki (Acetylcholinesterase [13]) was 1 µM.
With CC(=O)N1CC[C@@]2(O)c3cc(OC(=O)Nc4ccccc4)ccc3N[C@@H]12 the IC50 (Acetylcholinesterase [14]) was 0.25 µM, the Ratio IC50 [15] was > 400 and the IC50 (Cholinesterase [16]) was > 100 µM.
Compound COc1cccc2c1CCC(NC(=O)OCc1ccccc1)C2 (configuration not stated) has a Ki (Carbonic anhydrase 1) of 0.00589 µM, a Ki (Acetylcholinesterase [17]) of 0.000264 µM and a Ki (Carbonic anhydrase 2) of 0.00739 µM.
With CCc1ccccc1NC(=O)Oc1ccc2c(c1)[C@]1(C)CC[N+](C)([O-])[C@@H]1N2C (some centres not stated) the Ratio IC50 [18] was 115 and the IC50 (Acetylcholinesterase [19]) was 0.00474 µM.
In the case of CN(CCCOc1ccc2ccc(=O)oc2c1)Cc1cccc(OC(=O)NC2CCCC2)c1, the Ratio IC50 [1] is reported as 61.9, the IC50 (Cholinesterase [20]) is reported as 0.00642 µM and the IC50 [2] is reported as 0.00253 µM.
In the case of CCOC(=O)C1=CN(C)c2cccc(OC(=O)N(C)C)c2C1, the IC50 (Acetylcholinesterase [21]) is reported as > 1000 µM.
Cc1c(Cl)c(=O)oc2cc(OCCCCSC(=S)N3CCCCC3C)ccc12 (configuration not stated) gave an IC50 (Acetylcholinesterase [22]) of 0.0068 µM and an IC50 [23] of 0.876 µM.
Work on Cc1c(Cl)c(=O)oc2cc(OCCCCSC(=S)N3C(C)CCCC3C)ccc12 (configuration not stated) yielded an IC50 (Acetylcholinesterase [22]) of 0.114 µM and an IC50 [24] of 5.85 µM.
